Data reported in ChEMBL document CHEMBL3286148, “Aminoazabenzimidazoles, a novel class of orally active antimalarial agents” (J Med Chem, 2014).

Test system: Plasmodium berghei
Test: Antiplasmodial activity against Plasmodium berghei ANKA expressing GFP infected in BALB/c mouse assessed as host survival days at 30 mg/kg, po qd for 4 days
Assay type: functional

## CCN(CC)CCCC(C)Nc1ccnc2cc(Cl)ccc12 (stereo unspecified) [CHLOROQUINE]
  Survival: 27 days
